Measurements: paper PMC3634028, “Novel α-MSH Peptide Analogues with Broad Spectrum Antimicrobial Activity” (PLoS ONE, 2013)
Values after ≈ are worked out from the molar mass of the structure shown. Where a SMILES comes first, the peptide text is derived from it.

Columns and labels:
[1] = system: Escherichia coli D21; type: cell-based; conditions: D21, 18 h
Procedure: (§1) The strains used for the antimicrobial assays were the Gram-negative bacteria Acinetobacter baumani ATCC 19606, Escherichia coli D21, Pseudomonas aeruginosa ATCC 27853, and Pseudomonas syringae pv tabaci 1918NCPPB and the Gram-positive bacteria Bacillus megaterium Bm11, Staphylococcus aureus ATCC 25923, and Staphylococcus epidermidis ATCC 12228. Susceptibility testing was performed by adapting the microbroth dilution method outlined by the Clinical and Laboratory Standards Institute, using sterile 96-well plates (Falcon NJ, USA). The bacterial growth was aseptically measured by absorbance at 590 nm with a spectrophotometer (UV-1700 Pharma Spec Shimadzu, Tokyo, Japan). Afterwards, aliquots (50 µl) of bacteria in mid-log phase at a concentration of 2×10^6 colony-forming units (CFU)/mL in culture medium (Mueller-Hinton, MH) were added to 50 µl of MH broth containing the peptide in serial 2-fold dilutions ranging from 1.56 to 100 µM. Inhibition of microbial growth was determined by measuring the absorbance at 590 nm, after an incubation of 18 h at 37°C with a microplate reader (Infinite M200; Tecan, Salzburg, Austria).

[2] = system: Staphylococcus epidermidis ATCC 12228; type: cell-based; conditions: ATCC 12228, 18 h
Procedure: as §1

[3] = system: Staphylococcus aureus ATCC 25923; type: cell-based; conditions: ATCC 25923, 18 h
Procedure: as §1

[4] = system: Pseudomonas syringae pv tabaci 1918NCPPB; type: cell-based; conditions: 18 h
Procedure: as §1

[5] = system: Pseudomonas aeruginosa ATCC 27853; type: cell-based; conditions: ATCC 27853, 18 h
Procedure: as §1

[6] = system: Bacillus megaterium Bm11; type: cell-based; conditions: Bacillus Bm11, 18 h
Procedure: as §1

[7] = system: Acinetobacter baumani ATCC 19606; type: cell-based; conditions: ATCC 19606, 18 h
Procedure: as §1

[8] = system: Candida strains (C. albicans, C. glabrata, C. krusei); assay: Anti-Candida assay, overall result in words; type: cell-based, Candida spp; conditions: standard culture conditions, broth culture medium
Procedure: (§2) Two Candida albicans isolates were purchased from the ATCC (No. 24433 and 76615). The other yeast isolates were obtained from the collection of Fondazione Ca' Granda- Ospedale Maggiore Policlinico, Milano. The collection included C. albicans (7 isolates), C. glabrata (3 isolates), and C. krusei (3 isolates). Antifungal susceptibility testing was performed using the broth microdilution method according to the NCCLS M27-A guidelines (National Committee for Clinical Laboratory Standards. 1997, Reference method for broth dilution antifungal susceptibility testing of yeasts and approved standard NCCLS document M27-A. National Committee for Clinical Laboratory Standards, Wayne, Pa.). […] After 48 h of incubation, the plates were inspected for purity. A colony was taken from the agar plate and transferred into 5 mL Sabouraud-dextrose broth and incubated for 48 h at 35°C. Cells were centrifuged at 1,000× g for 10 min and the pellet was washed twice with distilled water. Cells were counted and suspended in RPMI 1640 medium buffered to pH 7.0 with 0.165 mol l^−1 morpholinepropanesulphonic acid (MOPS) buffer (Sigma) to obtain the two times test inoculum (1×10^3 to 5×10^3 CFU/mL). […] The MIC90, i.e. the minimum inhibitory concentrations endpoint were determined as 90% reduction in turbidity measured using a spectrophotometer (Titertek multiscan at 690 nm wave length).

[9] = system: Candida; design: method as in PMID 15743181; conditions: cited from earlier work
[10] = system: HaCaT keratinocyte cell line; assay: Cytotoxic activity, MTT colorimetric method; type: cell-based, human; conditions: 24 h; for cell death / killing of human keratinocytes: highest peptide concentration used (100 µM)
Procedure: Effects on viability was tested in the immortalised keratinocyte cell line HaCaT using the [3(4,5-dimethylthiazol-2yl)2,5-diphenyltetrazolium bromide] (MTT) colorimetric method in which the intensity of the dye is proportional to the number of viable cells. MTT is a tetrazolium salt which is reduced to a colored formazan product by mitochondrial reductases present only in metabolically active cells. Cells were cultured in Dulbecco's modified Eagle's medium (DMEM; Sigma) supplemented with 10% heat inactivated fetal bovine serum, glutamine (4 mM) and gentamicin. Afterwards, cells were plated in triplicate wells of a microtiter plate, at 4×10^4 cells/well in DMEM supplemented with 2% serum without antibiotic. After overnight incubation at 37°C in a 5% CO2 atmosphere, the medium was replaced with […] fresh DMEM supplemented with the peptides at different concentrations. The plate was incubated for 24 h at 37°C in a 5% CO2 atmosphere. Then, DMEM was removed and replaced with Hank's medium (136 mM NaCl; 4.2 mM Na2HPO4; 4.4 mM KH2PO4; 5.4 mM KCl; 4.1 mM NaHCO3, pH 7.2, supplemented with 20 mM D-glucose) containing 0.5 mg/ml MTT. After 4 h incubation, the formazan crystals were dissolved by adding 100 µl of acidified isopropanol and absorption of each well was measured using a microplate reader (Infinite M200; Tecan, Salzburg, Austria) at 570 nm. Cell viability was e expressed as percentage of viability in control cells (cells not treated with peptide).
Figure 1 Effects of the synthetic melanocortins on viability of HaCat cells. Cells were plated in wells of a microtiter plate, at 4×10^4 cells/well in DMEM supplemented with 2% serum without antibiotic. After overnight incubation at 37°C in a 5% CO2 atmosphere, the medium was replaced with 100 µl fresh DMEM supplemented with the peptides at different concentrations. […] Cell viability is expressed as percentage of viability in control cells (cells not treated with the peptide).

[11] = system: C. albicans; type: cell-based, Candida albicans; conditions: 48 h
Procedure: as §2

[12] = system: C. krusei; type: cell-based, Candida krusei; conditions: 48 h
Procedure: as §2

[13] = system: C. glabrata; type: cell-based, Candida glabrata; conditions: 48 h
Procedure: as §2

SMILES	MIC 100 [1] [µM]	MIC 100 [2] [µM]	MIC 100 [3] [µM]	MIC 100 [4] [µM]	MIC 100 [5] [µM]	MIC 100 [6] [µM]	MIC 100 [7] [µM]	antimicrobial / anti-Candida activity (in words) [8]	killing of Candida (in words) ([9]; in growth medium ref 7)	Candida organisms killed ([9]; organisms incubated in distilled water ref 7) [%]	cell death / killing of human keratinocytes [10]	MIC 90 [11] [µM]	MIC 90 [12] [µM]	MIC 90 [13] [µM]	toxic effects on human keratinocytes (in words) ([10]; at 50–100 µM concentrations)	toxic activity on human keratinocytes (in words) ([10]; up to a concentration of 12.5 µM)
CC(C)[C@H](NC(=O)[C@H](Cc1ccccc1)NC(=O)[C@H](CCCCN)NC(=O)CNC(=O)[C@H](Cc1c[nH]c2ccccc12)NC(=O)[C@H](CCCNC(=N)N)NC(=O)[C@@H](Cc1ccc2ccccc2c1)NC(=O)[C@@H](N)Cc1c[nH]cn1)C(N)=O [DNal, H-His-D(2′)Nal-Arg-Trp-Gly-Lys-Phe-Val-NH2, reference compound] (HELM PEPTIDE1{H.[O=C([C@@H](Cc1ccc2ccccc2c1)N[*:1])[*:2]].R.W.G.K.F.V.[am]}$$$$V2.0)	>100	50 (≈ 56.3 µg/mL)	>100	>100	100 (≈ 113 µg/mL)	6 (≈ 6.75 µg/mL)	>100	did not have substantial antimicrobial activity	did not kill	100	50–100%	>100	>100	>100		
CC(C)[C@H](NC(=O)[C@H](Cc1ccccc1)NC(=O)[C@H](CCCCN)NC(=O)C1(NC(=O)[C@H](Cc2c[nH]c3ccccc23)NC(=O)[C@H](CCCNC(=N)N)NC(=O)[C@@H](Cc2ccc3ccccc3c2)NC(=O)[C@@H](N)Cc2c[nH]cn2)CC1)C(N)=O [Peptide 4, H-His-D(2′)Nal-Arg-Trp-Ac3c-Lys-Phe-Val-NH2] (HELM PEPTIDE1{H.[O=C([C@@H](Cc1ccc2ccccc2c1)N[*:1])[*:2]].R.W.[O=C(C1(N[*:1])CC1)[*:2]].K.F.V.[am]}$$$$V2.0)	100 (≈ 115 µg/mL)	25 (≈ 28.8 µg/mL)	100 (≈ 115 µg/mL)	>100	50 (≈ 57.6 µg/mL)	6.25 (≈ 7.2 µg/mL)	50 (≈ 57.6 µg/mL)	inactive			less than 30%	>100	>100	>100		
CC(C)[C@H](NC(=O)[C@H](Cc1ccccc1)NC(=O)[C@H](CCCCN)NC(=O)[C@H](Cc1ccccc1)NC(=O)[C@H](Cc1c[nH]c2ccccc12)NC(=O)[C@H](CCCNC(=N)N)NC(=O)[C@@H](Cc1ccc2ccccc2c1)NC(=O)[C@@H](N)Cc1c[nH]cn1)C(N)=O [Peptide 9, H-His-D(2′)Nal-Arg-Trp-Phe-Lys-Phe-Val-NH2] (HELM PEPTIDE1{H.[O=C([C@@H](Cc1ccc2ccccc2c1)N[*:1])[*:2]].R.W.F.K.F.V.[am]}$$$$V2.0)	50 (≈ 60.8 µg/mL)	12.5 (≈ 15.2 µg/mL)	50 (≈ 60.8 µg/mL)	100 (≈ 122 µg/mL)	25 (≈ 30.4 µg/mL)	3.125 (≈ 3.8 µg/mL)	25 (≈ 30.4 µg/mL)	decreased activity			less than 30%		>100	>100		
CC(C)[C@H](NC(=O)[C@H](Cc1ccccc1)NC(=O)[C@H](CCCCN)NC(=O)[C@@H](NC(=O)[C@H](Cc1c[nH]c2ccccc12)NC(=O)[C@H](CCCNC(=N)N)NC(=O)[C@@H](Cc1ccc2ccccc2c1)NC(=O)[C@@H](N)Cc1c[nH]cn1)C(C)(C)C)C(N)=O [Peptide 3, H-His-D(2′)Nal-Arg-Trp-tBuGly-Lys-Phe-Val-NH2] (HELM PEPTIDE1{H.[O=C([C@@H](Cc1ccc2ccccc2c1)N[*:1])[*:2]].R.W.[CC(C)(C)[C@H](N[*:1])C(=O)[*:2]].K.F.V.[am]}$$$$V2.0)	50 (≈ 59.1 µg/mL)	50 (≈ 59.1 µg/mL)	>100	>100	50 (≈ 59.1 µg/mL)	6.25 (≈ 7.38 µg/mL)	100 (≈ 118 µg/mL)	inactive			less than 30%	>100	>100	>100		
CC(C)[C@H](NC(=O)[C@H](Cc1ccccc1)NC(=O)[C@H](CCCCN)NC(=O)[C@H](CC1CCCCC1)NC(=O)[C@H](Cc1c[nH]c2ccccc12)NC(=O)[C@H](CCCNC(=N)N)NC(=O)[C@@H](Cc1ccc2ccccc2c1)NC(=O)[C@@H](N)Cc1c[nH]cn1)C(N)=O [Peptide 10, H-His-D(2′)Nal-Arg-Trp-Cha-Lys-Phe-Val-NH2] (HELM PEPTIDE1{H.[O=C([C@@H](Cc1ccc2ccccc2c1)N[*:1])[*:2]].R.W.[Cha].K.F.V.[am]}$$$$V2.0)	6.25 (≈ 7.63 µg/mL)	6.25 (≈ 7.63 µg/mL)	12.5 (≈ 15.3 µg/mL)	25 (≈ 30.5 µg/mL)	25 (≈ 30.5 µg/mL)	3.125 (≈ 3.82 µg/mL)	12.5 (≈ 15.3 µg/mL)	potency similar to that of peptide 8						>100	exerted toxic effects	completely devoid of toxic activity
